Test results: patent US12685312B2, “Sulfonamide apyrase inhibitors” (Texas Crop Science, Inc., priority 2022, dated 2026)

Each compound was assayed on apyrase (assay: Screen for apyrase inhibitors (Method 1, in vitro phosphate-release absorbance assay)). Settings: inhibitor conc at 1 mM stock, 1 hr room temperature, absorbance 630 nm; rounded average of two assay results.
Assay type: biochemical
Procedure: Apyrase inhibitors useful as enhancers of pesticidal activity are assessed using an in vitro assay. The method of Windsor, Bio Techniques 33:1024-1030 (November 2002) was used as follows Screen for Apyrase Inhibitors- 96 well plates were used for the assay: (Greiner bio-one: REF-655901-96 well, PS, F-bottom, Clear, Non-binding) Buffers: • Reaction Buffer: 60 mM Hepes; 3 mM MgCl2, 3 mM CaCl2 and 3 mM ATP (pH 6.5) • Development Buffer A: 2% aqueous ammonium molybdate • Development Buffer B: 11% ascorbic acid in 37.5% TCA in water • Stop buffer C: 2% trisodium citrate in 2% acetic acid solution in water • Add 100 μl of reaction buffer to each well. • Add 10 μl of DMSO (control) or inhibitor/compound or compounds such as […] or orthovanadate to each well. […] A blank cell indicates either <10% observed inhibition or a large difference between repetitions. In certain examples, the lack of observed inhibition is due to a lack of solubility of the compound under assay conditions, rather than a lack of apyrase inhibitory activity.

Structure (SMILES)	% Inhibition of Apyrase
O=C(Nc1ccc(OC(F)F)cc1)c1ccccc1S(=O)(=O)Nc1cccc(C(F)(F)F)c1 [I-1, N-(4-(difluoromethoxy)phenyl)-2-(N-(3-(trifluoromethyl)phenyl)sulfamoyl)benzamide]	84%
O=C(Nc1cccc([N+](=O)[O-])c1)c1cccc(S(=O)(=O)Nc2cc(C(F)(F)F)ccc2Cl)c1 [I-3, 3-(N-(2-chloro-5-(trifluoromethyl)phenyl)sulfamoyl)-N-(3-nitrophenyl)benzamide]	73%
O=C(Nc1ccc(F)c([N+](=O)[O-])c1)c1ccc(S(=O)(=O)Nc2ccc(Cl)cc2)cc1 [I-4, 4-(N-(4-chlorophenyl)sulfamoyl)-N-(4-fluoro-3-nitrophenyl)benzamide]	73%
Cc1ccc(NS(=O)(=O)c2cc(C(=O)Nc3cccc([N+](=O)[O-])c3)ccc2C)cc1C [I-5, 3-(N-(3,4-dimethylphenyl)sulfamoyl)-4-methyl-N-(3-nitrophenyl)benzamide]	71%
Cc1ccc(C(=O)Nc2ccc([N+](=O)[O-])cc2)cc1S(=O)(=O)Nc1ccc(Br)cc1 [I-6, 3-(N-(4-bromophenyl)sulfamoyl)-4-methyl-N-(4-nitrophenyl)benzamide]	69%
Cc1cccc(NC(=O)c2cccc(NS(=O)(=O)c3ccc(Cl)cc3)c2)c1 [I-7, 3-((4-chlorophenyl)sulfonamido)-N-(m-tolyl)benzamide]	67%
CC1CCc2c(sc(NC(=O)c3cccc(S(=O)(=O)Nc4ccc(Br)cc4)c3)c2C#N)C1 (stereo not shown) [I-9, 3-(N-(4-bromophenyl)sulfamoyl)-N-(3-cyano-6-methyl-4,5,6,7-tetrahydrobenzo[b]thiophen-2-yl)benzamide]	61%
Cc1c(NC(=O)c2cccc(S(=O)(=O)Nc3ccc4c(c3)OCO4)c2)cccc1[N+](=O)[O-] [I-10, 3-(N-(benzo[d][1,3]dioxol-5-yl)sulfamoyl)-N-(2-methyl-3-nitrophenyl)benzamide]	60%
O=C(Nc1cccc([N+](=O)[O-])c1)c1cc(S(=O)(=O)Nc2cccc(F)c2)ccc1Cl [I-11, 2-chloro-5-(N-(3-fluorophenyl)sulfamoyl)-N-(3-nitrophenyl)benzamide]	60%
Cn1cc(O)nc1NC(=O)c1cccc(S(=O)(=O)Nc2ccc(Br)cc2)c1 [I-12, 3-(N-(4-bromophenyl)sulfamoyl)-N-(4-hydroxy-1-methyl-1H-imidazol-2-yl)benzamide]	59%
O=C(c1cccc(S(=O)(=O)Nc2ccc(Br)cc2)c1)N1CCc2ccccc21 [I-13, N-(4-bromophenyl)-3-(indoline-1-carbonyl)benzenesulfonamide]	59%
Cc1ccc(S(=O)(=O)Nc2cccc(C(=O)Nc3cccc(C)c3)c2)cc1 [I-14, 3-((4-methylphenyl)sulfonamido)-N-(m-tolyl)benzamide]	59%
COc1ccc(C(=O)Nc2cccc(Cl)c2)cc1S(=O)(=O)Nc1ccc(Br)cc1 [I-15, 3-(N-(4-bromophenyl)sulfamoyl)-N-(3-chlorophenyl)-4-methoxybenzamide]	55%
NC(=O)OCCNC(=O)c1cccc(S(=O)(=O)Nc2ccc(Br)cc2)c1 [I-17, 2-(3-(N-(4-bromophenyl)sulfamoyl)benzamido)ethyl carbamate]	52%
O=C(Nc1cccc([N+](=O)[O-])c1)c1ccc(Br)c(S(=O)(=O)Nc2ccc(F)cc2)c1 [I-19, 4-bromo-3-(N-(4-fluorophenyl)sulfamoyl)-N-(3-nitrophenyl)benzamide]	50%
O=C(Nc1ccc(Br)cc1)c1cccc(S(=O)(=O)Nc2ccc(Br)cc2)c1 [I-20, N-(4-bromophenyl)-3-(N-(4-bromophenyl)sulfamoyl)benzamide]	45%
O=C(Nc1cccc([N+](=O)[O-])c1)c1cccc(S(=O)(=O)Nc2ccc(Cl)cc2)c1 [I-21, 3-(N-(4-chlorophenyl)sulfamoyl)-N-(3-nitrophenyl)benzamide]	45%
O=C(Nc1cccc([N+](=O)[O-])c1)c1ccc(Br)c(S(=O)(=O)Nc2ccc(Br)cc2)c1 [I-22, 4-bromo-3-(N-(4-bromophenyl)sulfamoyl)-N-(3-nitrophenyl)benzamide]	38%
O=C(Nc1cccc([N+](=O)[O-])c1)c1ccc(Br)c(S(=O)(=O)Nc2cccc(F)c2)c1 [I-23, 4-bromo-3-(N-(3-fluorophenyl)sulfamoyl)-N-(3-nitrophenyl)benzamide]	30%
O=C(Nc1ccc(Br)cc1)c1cccc(S(=O)(=O)Nc2cccc([N+](=O)[O-])c2)c1 [I-24, N-(4-bromophenyl)-3-(N-(3-nitrophenyl)sulfamoyl)benzamide]	29%

Structure (SMILES)	% Inhibition of Apyrase
Cc1ccc([N+](=O)[O-])cc1NC(=O)c1ccc(Cl)c(S(=O)(=O)Nc2cccc(C)c2C)c1 [I-25, 4-chloro-3-(N-(2,3-dimethylphenyl)sulfamoyl)-N-(2-methyl-5-nitrophenyl)benzamide]	28%
COc1ccc(C(=O)Nc2ccc(F)c(F)c2)cc1S(=O)(=O)Nc1ccc(Br)cc1 [I-26, 3-(N-(4-bromophenyl)sulfamoyl)-N-(3,4-difluorophenyl)-4-methoxybenzamide]	28%
COc1ccc(NS(=O)(=O)c2cccc(NC(=O)c3cccc(-n4cccc4)c3)c2)cc1 [I-27, N-(3-(N-(4-methoxyphenyl)sulfamoyl)phenyl)-3-(1H-pyrrol-1-yl)benzamide]	24%
COc1ccc([N+](=O)[O-])cc1NC(=O)c1ccc(C)c(S(=O)(=O)Nc2ccccc2)c1 [I-28, N-(2-methoxy-5-nitrophenyl)-4-methyl-3-(N-phenylsulfamoyl)benzamide]	23%
CC(=O)c1cccc(NS(=O)(=O)c2cc(C(=O)Nc3cccc([N+](=O)[O-])c3)ccc2C)c1 [I-29, 3-(N-(3-acetylphenyl)sulfamoyl)-4-methyl-N-(3-nitrophenyl)benzamide]	22%
O=C(Nc1cccnc1)c1cccc(S(=O)(=O)Nc2cccc(C(F)(F)F)c2)c1 [I-30, N-(pyridin-3-yl)-3-(N-(3-(trifluoromethyl)phenyl)sulfamoyl)benzamide]	21%
O=C(Nc1cccc([N+](=O)[O-])c1)c1cccc(S(=O)(=O)Nc2ccc(F)cc2)c1 [I-31, 3-(N-(4-fluorophenyl)sulfamoyl)-N-(3-nitrophenyl)benzamide]	21%
O=C(Nc1cccc([N+](=O)[O-])c1)c1cccc(S(=O)(=O)Nc2cccc([N+](=O)[O-])c2)c1 [I-32, N-(3-nitrophenyl)-3-(N-(3-nitrophenyl)sulfamoyl)benzamide]	21%
COc1ccc(C(=O)Nc2ccc(Cl)cc2)cc1S(=O)(=O)Nc1ccc(Br)cc1 [I-33, 3-(N-(4-bromophenyl)sulfamoyl)-N-(4-chlorophenyl)-4-methoxybenzamide]	19%
O=C(Nc1cccc([N+](=O)[O-])c1)c1ccc(Br)c(S(=O)(=O)Nc2ccccc2)c1 [I-34, 4-bromo-N-(3-nitrophenyl)-3-(N-phenylsulfamoyl)benzamide]	18%
Cc1ccc(C(=O)Nc2cccc(C(=O)O)c2)cc1S(=O)(=O)Nc1ccc(Br)cc1 [I-35, 3-(3-(N-(4-bromophenyl)sulfamoyl)-4-methylbenzamido)benzoic acid]	17%
Cc1ccccc1NC(=O)c1cc(S(=O)(=O)Nc2ccc(Br)cc2)ccc1Cl [I-36, 5-(N-(4-bromophenyl)sulfamoyl)-2-chloro-N-(o-tolyl)benzamide]	16%
O=C(Nc1cccc([N+](=O)[O-])c1)c1cccc(S(=O)(=O)N2CCc3ccccc32)c1 [I-38, 3-(indolin-1-ylsulfonyl)-N-(3-nitrophenyl)benzamide]	14%
Cc1c(NC(=O)c2ccc(Cl)c(S(=O)(=O)Nc3ccccc3)c2)cccc1[N+](=O)[O-] [I-39, 4-chloro-N-(2-methyl-3-nitrophenyl)-3-(N-phenylsulfamoyl)benzamide]	14%
Cc1ccccc1NS(=O)(=O)c1cccc(C(=O)Nc2cccc([N+](=O)[O-])c2)c1 [I-40, N-(3-nitrophenyl)-3-(N-(o-tolyl)sulfamoyl)benzamide]	14%
COc1ccc([N+](=O)[O-])cc1NC(=O)c1cccc(S(=O)(=O)Nc2ccc(Cl)cc2)c1 [I-41, 3-(N-(4-chlorophenyl)sulfamoyl)-N-(2-methoxy-5-nitrophenyl)benzamide]	13%
O=C(NCCC1CCCO1)c1cccc(S(=O)(=O)Nc2ccc(Br)cc2)c1 (stereo not shown) [I-42, 3-(N-(4-bromophenyl)sulfamoyl)-N-(2-(tetrahydrofuran-2-yl)ethyl)benzamide]	13%
O=C(Nc1ccccc1)c1ccc(Cl)c(S(=O)(=O)Nc2ccc(Br)cc2)c1 [I-43, 3-(N-(4-bromophenyl)sulfamoyl)-4-chloro-N-phenylbenzamide]	13%
O=C(Nc1ccccc1[N+](=O)[O-])c1cc(S(=O)(=O)Nc2ccc(Br)cc2)ccc1Cl [I-44, 5-(N-(4-bromophenyl)sulfamoyl)-2-chloro-N-(2-nitrophenyl)benzamide]	13%
Cc1ccc(C(=O)Nc2cccc([N+](=O)[O-])c2)cc1S(=O)(=O)Nc1ccc(C(=O)O)cc1 [I-45, 4-((2-methyl-5-((3-nitrophenyl)carbamoyl)phenyl)sulfonamido) benzoic acid]	13%
